Reference: patent US20230398586A1, “METHOD FOR DECOMPOSING PLANT MATTER” (DANSTAR FERMENT AG, priority 2020, published 2023)

Columns and labels:
Assay type in all cases: in vivo
[1] = test system: apple tree leaves on the orchard floor; experiment: Visual in-field leaf degradation rating per grid, first trial
Text: The objective of this trial was to establish the potential of soluble yeast cell wall derivatives to accelerate degradation of apple tree leaves on the orchard floor thereby reducing overwintering potential of apple scab (Venturia inaequalis).
(§1) At 95% leaf drop, two populations of autumn leaves were collected: 1) yellow leaves (yellow leaves ready to fall; harvested from the treatment trees and placed into wire grids; and 2) brown leaves (brown leaves which have fallen but not yet showing visible degradation collected from the orchard floor and placed into wire grids).
(§2) The following treatments were tested: 1) untreated control (no application); 2) water control (1000 L water per hectare); 3) urea ([…] per 1000 L per hectare); and 4) soluble yeast cell wall derivatives (Lallemand) (5 kg dry matter/ha; 10 L/ha in 1000 L water per hectare).
(§3) Treatments were applied to the soil using a non-mechanised back pack sprayer as applicator, in a one meter radius around the tree stem (grids were placed within this circumference).
(§4) Treatment application times: 1) 95% leaf drop; 2) 95% leaf drop+two weeks; and 3) 95% leaf drop+four weeks.
All evaluations were done separately on each of the two leaf populations selected at the start of the trial.
Leaf degradation according to a 0-9 scale, on a per grid estimate, reflecting the surface area which has decomposed; with “0” representing no degradation, “3” being approx. 30% degradation, “6” representing 60% degradation, and “9” complete degradation. […]

[2] = test system: Venturia inaequalis ascospores; experiment: Ascospore projection from overwintered leaves (Kollar waterbath protocol); conditions: M2: one application at 50 kg/ha (30% fallen leaves); untreated control 139
Method: The objective of this trial was to evaluate the efficacy of the soluble yeast cell wall derivatives on their ability to reduce the apple scab inoculum (i.e. ascospores) on overwintering leaves.
The trial was carried out on a “Gala” apple variety in an orchard severely affected by apple scab.
The following treatments were tested: M1: untreated control; M2: urea, one application at […]: soluble yeast cell wall derivatives (Lallemand), one application at 5 l/ha (30% fallen leaves); M4: soluble yeast cell wall derivatives, one application at 10 l/ha (30% fallen leaves); M5: soluble yeast cell wall derivatives, two applications at 10 l/ha (first application at beginning of leaf drop and second application at 30% fallen leaves). Each treatment had three replicates.
One batch of 100 g of leaves per replication was placed in plastic mesh bags with fine mesh on the outdoor ground, in orchard conditions. Treatments were applied in November to the trees using a backpack sprayer (SOLO) at a volume of 1000 L/ha. […]
The ascospore projection of Venturia inaequalis was evaluated in March. […]
All meteorological records came from the SudAgroMétéo station on the SudExpé Marsillargues site. […] The results were analyzed using a one-way ANOVA and multiple comparisons of the mean were analysed using a Tukey post-hoc test at 5% threshold. […]

[3] = test system: apple tree leaves on the orchard floor; experiment: Leaf area degradation by leaf area scanner, first trial; conditions: for Average leaf area reduction: leaf area scanning method
Method: as §1, §2, §3, §4
Leaf degradation was expressed as the reduction in leaf area (mm^2) based on readings taken with a leaf area scanner (LI-COR, LI-3050C Transparent Belt Conveyor). Samples were placed onto a transparent conveyor belt which allowed the leaf to pass through the scanning head. The accumulated leaf area was determined by passing all leaves of a grid through the scanner and subsequently an average per leaf area (mm 2).

[4] = brown leaves, 4 weeks after the last application
[5] = brown leaves, 8 weeks after the last application
[6] = brown leaves, 10 weeks after the last application
[7] = yellow leaves, 6 weeks after the last application
[8] = yellow leaves, 8 weeks after the last application
[9] = yellow leaves, 10 weeks after the last application

NC(N)=O [urea]
Average leaf degradation score in the sampling grids, degradation category (scale 0-9) [1, 4]: 1.0
percentage by which leaf degradation of a treatment exceeded the water control [1, 4]: (+43%)
Average leaf degradation score in the sampling grids, degradation category (scale 0-9) ([1]; brown leaves, 6 weeks after the last application): 2.2 ab
Average leaf degradation score in the sampling grids, degradation category (scale 0-9) [1, 5]: 3.2 ab
percentage by which leaf degradation of a treatment exceeded the water control [1, 5]: (+60%)
Average leaf degradation score in the sampling grids, degradation category (scale 0-9) [1, 6]: 4.3 ab
percentage by which leaf degradation of a treatment exceeded the water control [1, 6]: (+34%)
Average leaf degradation score in the sampling grids, degradation category (scale 0-9) ([1]; brown leaves, 12 weeks after the last application): 5.7 ab
leaf degradation reached ([1]; first trial, 12 weeks after the last application, cold weather, lack of rains): ≤ 50%
Average leaf degradation score in the sampling grids, degradation category (scale 0-9) ([1]; yellow leaves, 4 weeks after the last application): 1.3a
Average leaf degradation score in the sampling grids, degradation category (scale 0-9) [1, 7]: 2.5a
percentage by which leaf degradation of a treatment exceeded the water control [1, 7]: (+39%)
Average leaf degradation score in the sampling grids, degradation category (scale 0-9) [1, 8]: 3.2a
percentage by which leaf degradation of a treatment exceeded the water control [1, 8]: (+14%)
Average leaf degradation score in the sampling grids, degradation category (scale 0-9) [1, 9]: 3.8 a
percentage by which leaf degradation of a treatment exceeded the water control [1, 9]: (+9%)
Average leaf degradation score in the sampling grids, degradation category (scale 0-9) ([1]; yellow leaves, 12 weeks after the last application): 5.3ab
Average concentration of apple scab ascospores discharged in the overwintered leaves [2]: 39 ascospores/μl
Leaf area reduction relative to the water control ([3]; brown leaves): (+52%)
Average leaf area reduction ([3]; brown leaves): 14.1 bc mm^2
Leaf area reduction relative to the water control ([3]; yellow leaves): (+10%)
Average leaf area reduction ([3]; yellow leaves): 15.0 abc mm^2
